Measured values reported in publication PMC11078746 (Nature, 2024).
pIC50: −log10 of the molar value. Where two headings read alike, the source gives them in different places.

Legend:
SNUC2A = experiment: 4 day proliferation assay (CellTiter-Glo)
HEC6 [1] = experiment: 4 day proliferation assay (CellTiter-Glo); conditions: Homo sapiens, HEC-6, 96 h, read-out: 4 day assay GI50
SNU520 = experiment: CFA 10-14 day clonogenic assay; type: cell-based; conditions: Homo sapiens
NUGC3 = experiment: CFA 10-14 day clonogenic assay; type: cell-based; conditions: Homo sapiens, NUGC-3
KM12 = experiment: 4 day proliferation assay (CellTiter-Glo); conditions: Homo sapiens, KM12, 96 h, read-out: 4 day assay GI50
HEC6 [2] = experiment: CFA 10-14 day clonogenic assay; type: cell-based; conditions: Homo sapiens, HEC-6
IM95 [3] = experiment: CFA 10-14 day clonogenic assay; type: cell-based; conditions: Homo sapiens
Ishikawa = experiment: CFA 10-14 day clonogenic assay; type: cell-based; conditions: Homo sapiens
HEC251 = experiment: 4 day proliferation assay (CellTiter-Glo); conditions: Homo sapiens, HEC-251, 96 h, read-out: 4 day assay GI50
CW2 = experiment: CFA 10-14 day clonogenic assay; type: cell-based; conditions: Homo sapiens, CW-2
HEC265 = experiment: 4 day proliferation assay (CellTiter-Glo); conditions: Homo sapiens, 96 h, read-out: 4 day assay GI50
SNUC5 = experiment: 4 day proliferation assay (CellTiter-Glo); conditions: Homo sapiens, 96 h, read-out: 4 day assay GI50
HCT116 cells = experiment: Cell cycle analysis by flow cytometry; type: cell-based, human; conditions: 10 µM for 24 h
Procedure: About 2 × 10^6 cells were collected by trypsin and washed once with PBS. Cells were pelleted and fixed in 100 µl 4% formaldehyde (Sigma-Aldrich, 47608) for 15 min at room temperature. Cells were washed by centrifugation with an excess of 1× PBS. Pellets were resuspended in 100 µl 1× PBS, then 900 µl of ice-cold methanol (Sigma-Aldrich, 34860) was added drop by drop while vortexing. Cells were incubated for 10 min on ice to permeabilize them. Cells were washed by centrifugation with excess of 1× PBS, pellets were resuspended in 100 µl anti-phosphorylated-histone H3 Ser10 conjugated to PE (Cell Signalling Technology, 5764) antibodies diluted 1:50 in 0.5% BSA PBS buffer and incubated for 1 h at room temperature protected from the light. […] Stained cells were analysed on the Cytoflex flow cytometer (Beckman Coulter).
Data were collected in 10^5 particle units and analysed with CytExpert v.2.4 software. […] These singlets were then analysed for DAPI (DNA content) and PE (phosphorylated histone H3 Ser10) staining intensities. Data were analysed to show the percentage of nuclei in the G1, S and G2/M phases using the DAPI channel and the percentage of cells specifically in G2 or M phase using the PE channel.

SNUC4 = experiment: CFA 10-14 day clonogenic assay; type: cell-based; conditions: Homo sapiens, SNU-C4
LIM2405 = experiment: CFA 10-14 day clonogenic assay; type: cell-based; conditions: Homo sapiens
2313287 = experiment: 4 day proliferation assay (CellTiter-Glo); conditions: Homo sapiens, 96 h, read-out: 4 day assay GI50
OVK18 = experiment: 4 day proliferation assay (CellTiter-Glo); conditions: Homo sapiens, OVK18, 96 h, read-out: 4 day assay GI50
HEC1A = experiment: 4 day proliferation assay (CellTiter-Glo); conditions: Homo sapiens, HEC-1-A, 96 h, read-out: 4 day assay GI50
IM95 [4] = experiment: 4 day proliferation assay (CellTiter-Glo); conditions: Homo sapiens, IM95, 96 h, read-out: 4 day assay GI50
EN = experiment: 4 day proliferation assay (CellTiter-Glo); conditions: Homo sapiens, 96 h, read-out: 4 day assay GI50
[5] = tested on: CYP (all isoforms tested); experiment: CYP inhibition; type: in vitro ADME
LS411N = experiment: 4 day proliferation assay (CellTiter-Glo)
SNU407 = experiment: 4 day proliferation assay (CellTiter-Glo); conditions: Homo sapiens, SNU-407, 96 h, read-out: 4 day assay GI50

Which GI50 (SNUC2A; Homo sapiens, 96 h, read-out: 4 day assay GI50, SNUC2A) does the source give for `CCc1c(N2CCN(C(=O)c3ncnc(C)c3O)CC2)c(=O)n2nc(C3=CCOCC3)nc2n1CC(=O)Nc1ccc(C(F)(F)F)cc1Cl` [HRO761] here?
Its GI50 is 0.641 µM.

And the GI50 (SNUC2A; read-out: 4 day assay GI50, SNUC2A)?
Its GI50 is 0.542 µM.

And the GI50 (HEC6 [1])?
The GI50 was 0.365 µM.

And the GI50 (SNU520)?
The GI50 was 1.74 µM.

And the GI50 (NUGC3)?
Its GI50 is at least 10 µM.

What about the GI50 (KM12) of the same compound?
The GI50 was 1.38 µM.

What about the GI50 (HEC6 [2]) of the same compound?
Its GI50 is 0.016 µM.

And the GI50 (IM95 [3])?
The GI50 was 0.255 µM.

And the GI50 (Ishikawa)?
Its GI50 is 0.051 µM.

What about the GI50 (HEC251) of the same compound?
The GI50 was at least 10 µM.

And the GI50 (CW2)?
The GI50 was 0.068 µM.

What about the GI50 (HEC265) of the same compound?
The GI50 was at least 10 µM.

And the GI50 (SNUC5)?
The GI50 was 7.24 µM.

And the cell cycle effect (HCT116 cells)?
Its cell cycle effect is “potent G2 cell cycle arrest”.

And the GI50 (SNUC4)?
Its GI50 is 0.035 µM.

And the GI50 (LIM2405)?
Its GI50 is 0.452 µM.

And the GI50 2313287?
The GI50 was at least 10 µM.

What about the GI50 (OVK18) of the same compound?
Its GI50 is at least 10 µM.

And the GI50 (HEC1A)?
The GI50 was at least 10 µM.

What about the GI50 (IM95 [4]) of the same compound?
Its GI50 is 2.01 µM.

And the GI50 (EN)?
The GI50 was at least 10 µM.

And the pIC50 [5]?
Its pIC50 is under 4.60.

What about the GI50 (LS411N; Homo sapiens, LS-411N, 96 h, read-out: 4 day assay GI50, LS411N) of the same compound?
The GI50 was 0.147 µM.

And the GI50 (LS411N; read-out: 4 day assay GI50, LS411N)?
Its GI50 is 0.257 µM.

And the GI50 (SNU407)?
The GI50 was 0.44 µM.
